System: U2OS cells expressing HaloTag fusion proteins
Assay: Live-cell labeling of HaloTag fusions at different subcellular locations, Airyscan microscopy
Assay type: cell-based
Details: 100 nM, 1 h
Description: Fig. 4. Evaluation of live-cell labeling of biotin–rhodamine–HaloTag ligands 13HTL–16HTL. Airyscan fluorescence microscopy images of U2OS cells expressing HaloTag fusion proteins at different subcellular locations, incubated with 100 nM 13HTL–16HTL for 1 h followed by fixation, counterstaining with Hoechst 33342 (gray) and imaging. Columns indicate different HaloTag fusion proteins: (A–D) Cell-surface-localized HaloTag–PDGFR; (E–H) Outer mitochondrial membrane-localized HaloTag–TOMM20; (I–L) Endoplasmic reticulum membrane-localized HaloTag–Sec61β; (M–P) Nucleus-localized HaloTag–histone H2B. Rows indicate different ligands: (A,E,I, and M) biotin–JF549–HaloTag ligand (13HTL; yellow); (B, F, J, and N) biotin–JF608–HaloTag ligand (14HTL; red); (C, G, K, and O) biotin–JF646–HaloTag ligand (15HTL; magenta); (D, H, L, and P) biotin–JF635–HaloTag ligand (16HTL; magenta). […]
indicated in the product information12 and from a previous publication.13 For labeling with biotin-JF-HaloTag ligands 13HTL–16HTL, cells were incubated with 100 nM or 1 µM ligand for 0.5–2 h at 37 °C. […] For quantitation of labeling intensity, ROIs were drawn surrounding individual HEK cells, and the average fluorescence ratio (JF/msGFP) from multiple cells in each condition was measured; no background subtraction was necessary.
U2OS cell culture, labeling, and fluorescence microscopy. […]

O=C(CCCCC1SCC2NC(=O)NC21)NCCOCCOCCNC(=O)C1C[N+](=c2ccc3c(-c4cc(C(=O)NCCOCCOCCCCCCCl)ccc4C(=O)[O-])c4ccc(N5CCC5)cc4oc-3c2)C1 (stereo not shown) [13HTL, biotin–JF549–HaloTag ligand]
labeling of HaloTag fusions (PDGFR, TOMM20, Sec61β, histone H2B): low intracellular signals, only labeling the cell-surface-localized PDGFR–HaloTag fusion

— PMC12595484, “Optimizing multifunctional fluorescent ligands for intracellular labeling” (Proceedings of the National Academy of Sciences of the …, 2025)
